Experimental data: US9624241B2 (Incyte Corporation, priority 2013, dated 2017)
Where a name gives a salt, the structure may show the parent alone. Read-outs that look alike come from different tables or passages of the source.

Legend:
[1] = target: BRD4-BD1 (Homo sapiens (Human), UniProt O60885); assay: BRD4 AlphaScreen Assay (Example A2), BRD4-BD1; format: binding; settings: read-out: BRD4 BD-1 enzyme IC50
How it was run: (§1)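 Displacement of 50 nM biotinylated tetra-acetylated histone H4 peptide from BRD4 BD1 or BD2 (<1 nM) in Tris-HCl pH 7.5 buffer with DTT. Inhibitors serially diluted in DMSO, added first, then incubated 75 min in the dark at room temperature before AlphaScreen read. IC50 fitted from percent control activity versus log concentration.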

[2] = target: BRD4-BD2 (Homo sapiens (Human), UniProt O60885); assay: BRD4 AlphaScreen Assay (Example A2), BRD4-BD2; format: binding; settings: read-out: BRD4 BD-2 enzyme IC50
How it was run: as §1

[3] = Assay A2, AlphaScreen, BRD4-BD1
[4] = Assay A2, AlphaScreen, BRD4-BD2

| IC50 [1, 3] | IC50 [2, 4] | SMILES | IC50 [1] | IC50 [2] |
| --- | --- | --- | --- | --- |
| < 0.1 µM | < 0.1 µM | CC(=O)N1CCC(c2nc3ccc(-c4c(C)noc4C)c4c3n2[C@@H](c2ccccn2)CO4)CC1 [Example 109, (4S)-2-(1-Acetylpiperidin-4-yl)-7-(3,5-dimethylisoxazol-4-yl)-4-pyridin-2-yl-4,5-dihydroimidazo[1,5,4-de][1,4]benzoxazine] |  |  |
| < 0.1 µM | < 0.1 µM | CC(=O)N1CC=C(c2nc3ccc(-c4c(C)noc4C)c4c3n2[C@@H](c2ccccn2)CO4)CC1 [Example 110, (4S)-2-(1-acetyl-1,2,3,6-tetrahydropyridin-4-yl)-7-(3,5-dimethylisoxazol-4-yl)-4-pyridin-2-yl-4,5-dihydroimidazo[1,5,4-de][1,4]benzoxazine] |  |  |
| 0.1 to 1 µM | < 0.1 µM | COn1c(=O)n2c3c(c(-c4c(C)noc4C)ccc31)CCC2c1ccccn1 (stereo not drawn) [Example 122, 7-(3,5-Dimethylisoxazol-4-yl)-1-methoxy-4-pyridin-2-yl-5,6-dihydro-4H-imidazo[4,5,1-ij]quinolin-2(1H)-one trifluoroacetate] |  |  |
| < 0.1 µM | < 0.1 µM | Cc1noc(C)c1-c1cc(CNC(=O)Cc2ccccc2)c2[nH]c(=O)n3c2c1OC[C@@H]3c1ccccn1 [Example 139, N-{[(4S)-7-(3,5-Dimethylisoxazol-4-yl)-2-oxo-4-pyridin-2-yl-1,2,4,5-tetrahydroimidazo[1,5,4-de][1,4]benzoxazin-9-yl]methyl}-2-phenylacetamide] |  |  |
| < 0.1 µM | < 0.1 µM | COCC(=O)NCc1cc(-c2c(C)noc2C)c2c3c1[nH]c(=O)n3[C@@H](c1ccccn1)CO2 [Example 140, N-{[(4S)-7-(3,5-Dimethylisoxazol-4-yl)-2-oxo-4-pyridin-2-yl-1,2,4,5-tetrahydroimidazo[1,5,4-de][1,4]benzoxazin-9-yl]methyl}-2-methoxyacetamide] |  |  |
| < 0.1 µM | < 0.1 µM | Cc1noc(C)c1-c1cc(CNS(C)(=O)=O)c2[nH]c(=O)n3c2c1OC[C@@H]3c1ccccn1 [Example 141, N-{[(4S)-7-(3,5-Dimethylisoxazol-4-yl)-2-oxo-4-pyridin-2-yl-1,2,4,5-tetrahydroimidazo[1,5,4-de][1,4]benzoxazin-9-yl]methyl}methanesulfonamide] |  |  |
| < 0.1 µM | < 0.1 µM | CC(=O)N1CCCN(c2nc3ccc(-c4c(C)noc4C)c4c3n2[C@@H](c2ccccn2)CO4)CC1 [Example 148, (4S)-2-(4-Acetyl-1,4-diazepan-1-yl)-7-(3,5-dimethylisoxazol-4-yl)-4-pyridin-2-yl-4,5-dihydroimidazo[1,5,4-de][1,4]benzoxazine] |  |  |
| < 0.1 µM | < 0.1 µM | Cc1noc(C)c1-c1ccc2nc(N3CCCN(S(C)(=O)=O)CC3)n3c2c1OC[C@@H]3c1ccccn1 [Example 149, (4S)-7-(3,5-Dimethylisoxazol-4-yl)-2-[4-(methylsulfonyl)-1,4-diazepan-1-yl]-4-pyridin-2-yl-4,5-dihydroimidazo[1,5,4-de][1,4]benzoxazine] |  |  |
| < 0.1 µM | < 0.1 µM | Cc1noc(C)c1-c1cc(F)c2nc(N3CCC(O)C3)n3c2c1OCC3c1cccnc1 (stereo not drawn) [Example 157, 1-[7-(3,5-Dimethylisoxazol-4-yl)-9-fluoro-4-pyridin-3-yl-4,5-dihydroimidazo[1,5,4-de][1,4]benzoxazin-2-yl]pyrrolidin-3-ol] |  |  |
| < 0.1 µM | < 0.1 µM | CCNc1nc2c(F)cc(-c3c(C)noc3C)c3c2n1C(c1cccnc1)CO3 (stereo not drawn) [Example 158, 7-(3,5-Dimethylisoxazol-4-yl)-N-ethyl-9-fluoro-4-pyridin-3-yl-4,5-dihydroimidazo[1,5,4-de][1,4]benzoxazin-2-amine] |  |  |

The remaining lines, values behind:

| SMILES | IC50 [1, 3] | IC50 [2, 4] | IC50 [1] | IC50 [2] |
| --- | --- | --- | --- | --- |
| Cc1noc(C)c1-c1ccc2nc(C3=CCNC3)n3c2c1OC[C@@H]3c1ccccn1 [Example 105, (4S)-2-(2,5-dihydro-1H-pyrrol-3-yl)-7-(3,5-dimethylisoxazol-4-yl)-4-pyridin-2-yl-4,5-dihydroimidazo[1,5,4-de][1,4]benzoxazine] | < 0.1 µM | < 0.1 µM |  |  |
| Cc1noc(C)c1-c1ccc2nc(C3CCN(C(=O)C4CC4)CC3)n3c2c1OC[C@@H]3c1ccccn1 [Example 111, (4S)-2-[1-(cyclopropylcarbonyl)piperidin-4-yl]-7-(3,5-dimethylisoxazol-4-yl)-4-pyridin-2-yl-4,5-dihydroimidazo[1,5,4-de][1,4]benzoxazine] | < 0.1 µM | < 0.1 µM |  |  |
| Cc1noc(C)c1-c1ccc2nc(C3CCN(S(C)(=O)=O)CC3)n3c2c1OC[C@@H]3c1ccccn1 [Example 112, (4S)-7-(3,5-dimethylisoxazol-4-yl)-2-[1-(methylsulfonyl)piperidin-4-yl]-4-pyridin-2-yl-4,5-dihydroimidazo[1,5,4-de][1,4]benzoxazine] | < 0.1 µM | < 0.1 µM |  |  |
| CC(=O)N1CCC=C(c2nc3ccc(-c4c(C)noc4C)c4c3n2[C@@H](c2ccccn2)CO4)C1 [Example 116, (4S)-2-(1-acetyl-1,2,5,6-tetrahydropyridin-3-yl)-7-(3,5-dimethylisoxazol-4-yl)-4-pyridin-2-yl-4,5-dihydroimidazo[1,5,4-de][1,4]benzoxazine] | < 0.1 µM | < 0.1 µM |  |  |
| Cc1noc(C)c1-c1ccc2[nH]c(=O)n3c2c1CCC3c1ccccc1 (stereo not drawn) [Example 120, 7-(3,5-Dimethylisoxazol-4-yl)-4-phenyl-5,6-dihydro-4H-imidazo[4,5,1-ij]quinolin-2(1H)-one] | < 0.1 µM | < 0.1 µM |  |  |
| Cc1noc(C)c1-c1ccc2[nH]c(=O)n3c2c1CCC3c1ccccn1 (stereo not drawn) [Example 123, 7-(3,5-Dimethylisoxazol-4-yl)-4-pyridin-2-yl-5,6-dihydro-4H-imidazo[4,5,1-ij]quinolin-2(1H)-one trifluoroacetate] | 0.1 to 1 µM | < 0.1 µM |  |  |
| Cc1noc(CF)c1-c1ccc2[nH]c(=O)n3c2c1OCC3c1ccccn1 (stereo not drawn) [Example 125, 7-[5-(Fluoromethyl)-3-methylisoxazol-4-yl]-4-pyridin-2-yl-4,5-dihydroimidazo[1,5,4-de][1,4]benzoxazin-2(1H)-one trifluoroacetate] | 1 to 10 µM | < 0.1 µM |  |  |
| Cc1noc(C)c1-c1ccc2[nH]c(=O)n3c2c1OCC3c1cccnc1C(N)=O (stereo not drawn) [Example 127, 3-[7-(3,5-Dimethylisoxazol-4-yl)-2-oxo-1,2,4,5-tetrahydroimidazo[1,5,4-de][1,4]benzoxazin-4-yl]pyridine-2-carboxamide trifluoroacetate] |  |  | < 0.1 µM | < 0.1 µM |
| CNC(=O)c1ncccc1C1COc2c(-c3c(C)noc3C)ccc3[nH]c(=O)n1c23 (stereo not drawn) [Example 128, 3-[7-(3,5-Dimethylisoxazol-4-yl)-2-oxo-1,2,4,5-tetrahydroimidazo[1,5,4-de][1,4]benzoxazin-4-yl]-N-methylpyridine-2-carboxamide] | < 0.1 µM | < 0.1 µM |  |  |
| Cc1noc(C)c1-c1ccc2[nH]c(=O)n3c2c1OCC3c1cccnc1CN (stereo not drawn) [Example 130, 4-[2-(Aminomethyl)pyridin-3-yl]-7-(3,5-dimethylisoxazol-4-yl)-4,5-dihydroimidazo[1,5,4-de][1,4]benzoxazin-2(1H)-one bis(trifluoroacetate)] | < 0.1 µM | < 0.1 µM |  |  |
| Cc1noc(C)c1-c1cc(CN)c2[nH]c(=O)n3c2c1OC[C@@H]3c1ccccn1 [Example 137, (4S)-9-(Aminomethyl)-7-(3,5-dimethylisoxazol-4-yl)-4-pyridin-2-yl-4,5-dihydroimidazo[1,5,4-de][1,4]benzoxazin-2(1H)-one bis(trifluoroacetate)] | 1 to 10 µM | < 0.1 µM |  |  |
| Cc1noc(C)c1-c1cc(CNC(=O)NC(C)C)c2[nH]c(=O)n3c2c1OC[C@@H]3c1ccccn1 [Example 142, N-{[(4S)-7-(3,5-Dimethylisoxazol-4-yl)-2-oxo-4-pyridin-2-yl-1,2,4,5-tetrahydroimidazo[1,5,4-de][1,4]benzoxazin-9-yl]methyl}-N′-isopropylurea] | 0.1 to 1 µM | < 0.1 µM |  |  |
| Cc1noc(C)c1-c1cc(CNC(=O)CN(C)C)c2[nH]c(=O)n3c2c1OC[C@@H]3c1ccccn1 [Example 143, 2-(Dimethylamino)-N-{[(4S)-7-(3,5-dimethylisoxazol-4-yl)-2-oxo-4-pyridin-2-yl-1,2,4,5-tetrahydroimidazo[1,5,4-de][1,4]benzoxazin-9-yl]methyl}acetamide] | 0.1 to 1 µM | < 0.1 µM |  |  |
| Cc1noc(C)c1-c1ccc2nc(N3CC[C@@H](N(C)C(=O)CC#N)C3)n3c2c1OC[C@@H]3c1ccccn1 [Example 152, 2-Cyano-N-{(3R)-1-[(4S)-7-(3,5-dimethylisoxazol-4-yl)-4-pyridin-2-yl-4,5-dihydroimidazo[1,5,4-de][1,4]benzoxazin-2-yl]pyrrolidin-3-yl}-N-methylacetamide] | < 0.1 µM | < 0.1 µM |  |  |
| Cc1noc(C)c1-c1ccc2nc(N3CC[C@@H](NC(=O)N4CCOCC4)C3)n3c2c1OC[C@@H]3c1ccccn1 [Example 153, N-{(3R)-1-[(4S)-7-(3,5-Dimethylisoxazol-4-yl)-4-pyridin-2-yl-4,5-dihydroimidazo[1,5,4-de][1,4]benzoxazin-2-yl]pyrrolidin-3-yl}morpholine-4-carboxamide] | < 0.1 µM | < 0.1 µM |  |  |
| Cc1noc(C)c1-c1cc(F)c2nc(N(C)C)n3c2c1OCC3c1cccnc1 (stereo not drawn) [Example 156, 7-(3,5-Dimethylisoxazol-4-yl)-9-fluoro-N,N-dimethyl-4-pyridin-3-yl-4,5-dihydroimidazo[1,5,4-de][1,4]benzoxazin-2-amine] | 0.1 to 1 µM | < 0.1 µM |  |  |
| Cc1noc(C)c1-c1ccc2nc(N(C)CCO)n3c2c1OCC3c1ccccn1 (stereo not drawn) [Example 185, 2-[[7-(3,5-dimethylisoxazol-4-yl)-4-pyridin-2-yl-4,5-dihydroimidazo[1,5,4-de][1,4]benzoxazin-2-yl](methyl)amino]ethanol] | 0.1 to 1 µM |  |  | < 0.1 µM |
